Results taken from paper PMC3401633 (Bioorganic & medicinal chemistry letters, 2011).

Target: human isoprenylcysteine carboxyl methyltransferase (hIcmt) (Homo sapiens, UniProt O60725)
Assay: vapor diffusion assay
Format: biochemical
Settings: VDA

Sequence of human isoprenylcysteine carboxyl methyltransferase (hIcmt) (O60725 whole entry, the tested form may be a part): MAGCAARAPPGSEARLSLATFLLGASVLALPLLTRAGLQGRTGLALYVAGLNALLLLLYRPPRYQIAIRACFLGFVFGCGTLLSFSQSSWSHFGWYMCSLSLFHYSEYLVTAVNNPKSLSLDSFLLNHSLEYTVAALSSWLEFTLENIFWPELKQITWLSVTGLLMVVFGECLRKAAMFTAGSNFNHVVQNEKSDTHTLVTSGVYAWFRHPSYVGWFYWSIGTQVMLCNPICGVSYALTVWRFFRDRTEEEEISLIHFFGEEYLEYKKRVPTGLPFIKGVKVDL

Compound	hIcmt inhibition in words
CC(C)=CCC/C(C)=C/CC/C(C)=C/CSC[C@H](NS(=O)(=O)c1c(C)c(C)c(C)c(C)c1C)C(=O)O [Compound 6a]	poor hIcmt inhibitors
COC(=O)[C@H](CSC/C=C(\C)CC/C=C(\C)CCC=C(C)C)NS(=O)(=O)c1cccs1 [Compound 10]	remarkably poor hIcmt inhibitor
